For 24 molecules, Ki results are on record in patent US10160762B2, “6-alkyl dihydropyrazolopyrimidinone compounds as PDE2 inhibitors” (Merck Sharp & Dohme Corp., priority 2015, dated 2018).

This assay deals with T1, human PDE2A1 (Homo sapiens, UniProt O00408).
T1 construct: GST; purchased BPS Bioscience (San Diego, Calif.) 60020; host or cells: insect cells
The experiment in a line: IMAP FP PDE assay, human PDE2A1. Type of assay: biochemical. Particulars: Lab B; read-out: Human PDE2 Ki (nM) Lab B. The essentials: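 FP (IMAP) read after 60 min room-temperature reaction of insect-cell GST-human PDE2A1 with 50 nM FAM-cAMP plus 1000 nM cGMP (pH 7.2 Tris, Mg2+, DTT). Compounds titrated 3-fold over ten points. Apparent Ki derived assuming KM of 10,000 nM; enzyme at 20% substrate turnover.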

As usually defined, the Ki is the dissociation constant of the complex between target and ligand, obtained from inhibition or displacement.

Bounds are passed on as bounds.

T1 sequence (O00408 1-920 isoform O00408-2): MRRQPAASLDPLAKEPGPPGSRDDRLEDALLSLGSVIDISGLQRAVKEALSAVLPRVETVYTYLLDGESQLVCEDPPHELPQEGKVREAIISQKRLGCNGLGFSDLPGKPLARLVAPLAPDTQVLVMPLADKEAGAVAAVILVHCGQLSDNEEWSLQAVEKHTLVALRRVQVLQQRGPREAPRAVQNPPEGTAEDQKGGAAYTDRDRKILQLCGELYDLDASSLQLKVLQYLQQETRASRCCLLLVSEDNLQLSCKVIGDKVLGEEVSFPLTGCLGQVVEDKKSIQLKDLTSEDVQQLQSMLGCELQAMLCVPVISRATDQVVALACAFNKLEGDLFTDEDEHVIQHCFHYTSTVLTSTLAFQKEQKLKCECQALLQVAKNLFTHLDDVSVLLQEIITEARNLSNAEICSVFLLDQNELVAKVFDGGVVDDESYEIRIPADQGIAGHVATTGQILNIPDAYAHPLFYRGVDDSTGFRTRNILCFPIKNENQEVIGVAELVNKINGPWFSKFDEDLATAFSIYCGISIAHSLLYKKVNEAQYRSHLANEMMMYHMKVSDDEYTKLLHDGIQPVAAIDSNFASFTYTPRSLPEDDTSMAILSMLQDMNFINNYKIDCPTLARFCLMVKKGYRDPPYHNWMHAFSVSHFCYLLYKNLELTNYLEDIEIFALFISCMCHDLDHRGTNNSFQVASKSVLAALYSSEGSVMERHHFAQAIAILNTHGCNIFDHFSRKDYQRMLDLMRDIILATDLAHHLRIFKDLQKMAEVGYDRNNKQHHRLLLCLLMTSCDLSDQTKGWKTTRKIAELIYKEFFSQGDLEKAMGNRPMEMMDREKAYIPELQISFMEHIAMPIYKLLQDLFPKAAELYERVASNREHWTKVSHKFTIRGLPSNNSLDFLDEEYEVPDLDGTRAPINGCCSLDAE

With `CCC(c1ccc(C(F)(F)F)cc1)n1nc(CO)c2c(=O)[nH]c(C)nc21` (single isomer, unassigned) [Example 133, (S)- or (R)-3-(Hydroxymethyl)-6-methyl-1-(1-(4-(trifluoro-methyl)phenyl)propyl)-1H-pyrazolo[3,4-d]pyrimidin-4(5H)-one], the Ki came to 66 nM.
For `Cc1nc2c(c(CO)nn2C(C)c2ncn(CC(F)(F)F)n2)c(=O)[nH]1` (single isomer, unassigned) [Example 148], the Ki was determined as 671 nM.
Turning to `CC(=O)Nc1nn(C(C)c2ccc(C(F)(F)F)cc2)c2nc(C)[nH]c(=O)c12` (single isomer, unassigned) [Example 260], the Ki worked out at 54 nM.
Regarding `Cc1nc2c(c(C(F)F)nn2C(C)c2ccc(SC(F)(F)F)cc2)c(=O)[nH]1` (single isomer, unassigned) [Example 180, (S)- or (R)-3-(Difluoromethyl)-6-methyl-1-(1-(4-(trifluoromethylthio)phenyl)ethyl)-1H-pyrazolo[3,4-d] pyrimidin-4(5H)-one], the Ki was 0.55 nM.
`Cc1nc2c(c(CC(O)C(F)(F)F)nn2C(C)c2ccc(C(F)(F)F)cc2)c(=O)[nH]1` (single isomer, unassigned) [Example 239]: the Ki was about 2820 nM.
For `Cc1nc2c(c(CO)nn2C(C)c2ccc(S(F)(F)(F)(F)F)cc2F)c(=O)[nH]1` (single isomer, unassigned) [Example 121] the value was 2.8 nM.
The figure for `Cc1nc2c(c(C(F)F)nn2C(C)c2ccc(S(F)(F)(F)(F)F)cc2)c(=O)[nH]1` (single isomer, unassigned) [Example 161] is 224 nM.
As to `Cc1nc2c(c(C3CCCO3)nn2C(C)c2ccc(C(F)(F)F)cc2)c(=O)[nH]1` (single isomer, unassigned) [Example 72, (S, R)- or (S, S)- or (R, S)- or (R, R)-6-Methyl-3-(-tetrahydrofuran-(trifluoromethyl)phenyl)ethyl)-1H-pyrazolo[3,4-d]pyrimidin-4(5H)-one], the Ki was 570 nM.
As to `Cc1nc2c(c(CC(F)(F)F)nn2C(c2ccc(C(F)(F)F)c(F)c2)C2(C)CC2)c(=O)[nH]1` (single isomer, unassigned) [Example 62, (R)- or (S)-1-((3-Fluoro-4-(trifluoromethyl)phenyl)(1-methylcyclopropyl)methyl)-6-methyl-3-(2,2,2-trifluoroethyl)-1H-pyrazolo[3,4-d]pyrimidin-4(5H)-one], the Ki was 1100 nM.
For the molecule `CC(c1ccc(S(F)(F)(F)(F)F)cc1)n1nc(CO)c2c(=O)[nH]c(C3CC3)nc21` (single isomer, unassigned) [Example 316, (S)- or (R)-6-Cyclopropyl-3-(hydroxymethyl)-1-{1-[4-(pentafluoro-sulfanyl)-phenyl]ethyl}-1,5-dihydro-4H-pyrazolo[3,4-d]pyrimidin-4-one], the inhibitory constant (Ki) was 72 nM.
For `Cc1nc2c(c(CO)nn2C(c2ccc(C(F)(F)F)c(F)c2)C2(C)CC2)c(=O)[nH]1` (single isomer, unassigned) [Example 15, (S)- or (R)-1-((3-Fluoro-4-(trifluoromethyl)phenyl)(1-methylcyclopropyl)methyl)-3-(hydroxymethyl)-6-methyl-1H-pyrazolo[3,4-d]pyrimidin-4(5H)-one] the value was 154 nM; for `Cc1nc2c(c(C(F)F)nn2C(C)c2ccc(OC(F)(F)F)cc2)c(=O)[nH]1` (single isomer, unassigned) [Example 178, (S)- or (R)-3-(Difluoromethyl)-6-methyl-1-(1-(4-(trifluoromethoxy)phenyl)ethyl)-1H-pyrazolo[3,4-d]pyrimidin-4(5H)-one], 0.72 nM.
For `CNC(=O)c1nn(C(C)c2ccc(C(F)(F)F)cc2)c2nc(C)[nH]c(=O)c12` (single isomer, unassigned) [Example 264] the value was 233 nM; for `CC(c1ccc(C(F)(F)F)cc1)n1nc(CO)c2c(=O)[nH]c(C3CCCO3)nc21` (single isomer, unassigned) [Example 313, (R,S)- or (S,R)- or (R,R)- or (S,S)-3-(Hydroxymethyl)-6-(tetrahydrofuran-2-yl)-1-(1-(4-(trifluoromethyl)-phenyl)ethyl)-1,5-dihydro-4H-pyrazolo[3,4-d]pyrimidin-4-one], 22 nM.
With `Cc1nc2c(c(C(N)=O)nn2C(C)c2ccc(C(F)(F)F)cc2)c(=O)[nH]1` (single isomer, unassigned) [Example 257], the Ki was determined as 115 nM.
For `Cc1nc2c(c(CO)nn2C(C)c2ccc(C(F)(F)F)cc2C)c(=O)[nH]1` (single isomer, unassigned) [Example 108, (R)- or (S)-3-(Hydroxymethyl)-6-methyl-1-(1-(2-methyl-4-(trifluoromethyl)phenyl)ethyl)-1H-pyrazolo[3,4-d]pyrimidin-4(5H)-one] the value was about 1280 nM.
In the case of `Cc1nc2c(c(CO)nn2C(C)c2ccc(OC(F)F)cc2F)c(=O)[nH]1` (single isomer, unassigned) [Example 118, (R)- or (S)-1-(1-(4-(Difluoromethoxy)-2-fluorophenypethyl)-3-(hydroxymethyl)-6-methyl-1H-pyrazolo[3,4-d]pyrimidin-4(5H)-one], the Ki was determined as 323 nM.
As for `Cc1nc2c(c(C(=O)O)nn2[C@@H](C)c2ccc(C(F)(F)F)cc2)c(=O)[nH]1` [Example 323, (S)-6-Methyl-4-oxo-1-(1-(4-(trifluoromethyl)phenyl)ethyl)-4,5-dihydro-1H-pyrazolo[3,4-d]pyrimidine-3-carboxylic acid], the Ki was 798 nM.
For `Cc1nc2c(c(CC(F)(F)F)nn2C(c2ccc(C(F)(F)F)c(F)c2)C2(C)CC2)c(=O)[nH]1` (single isomer, unassigned) [Example 63, (S)- or (R)-1-((3-Fluoro-4-(trifluoromethyl)phenyl)(1-methylcyclopropyl)methyl)-6-methyl-3-(2,2,2-trifluoroethyl)-1H-pyrazolo[3,4-d]pyrimidin-4(5H)-one] the value was 45 nM.
For `Cc1nc2c(c(CO)nn2C(C)c2ccc(C3(C(F)(F)F)CC3)cc2)c(=O)[nH]1` (single isomer, unassigned) [Example 80] the value was 624 nM.
The figure for `Cc1nc2c(c(CO)nn2C(C)c2cnn(CC(F)(F)F)c2)c(=O)[nH]1` (single isomer, unassigned) [Example 149, (R)- or (S)-3-(Hydroxymethyl)-6-methyl-1-(1-(1-(2,2,2-trifluoroethyl)-1H-pyrazol-4-yl)ethyl)-1H-pyrazolo[3,4-d]pyrimidin-4(5H)-one] is over 2960 nM.
For `Cc1nc2c(c(C(N)=O)nn2C(C)c2ccc(C(F)(F)F)cc2)c(=O)[nH]1` (single isomer, unassigned) [Example 256], the Ki worked out at 86 nM.
The figure for `Cc1nc2c(c(CO)nn2C(C)c2cnn(CC(F)(F)F)c2)c(=O)[nH]1` (single isomer, unassigned) [Example 150, (S)- or (R)-3-(Hydroxymethyl)-6-methyl-1-(1-(1-(2,2,2-trifluoroethyl)-1H-pyrazol-4-yl)ethyl)-1H-pyrazolo[3,4-d]pyrimidin-4(5H)-one] is 158 nM; for `Cc1nc2c(c(CO)nn2C(C)c2ccc(C3(C)CC3)cc2)c(=O)[nH]1` (single isomer, unassigned) [Example 144, (S)- or (R)-3-(Hydroxymethyl)-6-methyl-1-(1-(4-(1-methylcyclopropyl)phenyl)ethyl)-1H-pyrazolo[3,4-d]pyrimidin-4(5H)-one] it is 0.59 nM.
